Laboratory results from ChEMBL document CHEMBL1133971, “EDTA bis-(ethyl phenylalaninate): a novel transition metal-ion chelating hydroxyl radical scavenger with a potential anti-inflammatory role” (Bioorg Med Chem Lett, 2001).

Columns and labels:
[1] = Antioxidant efficacy as assessed by the deoxyribose assay at a concentration of 1.040 mM
[2] = Antioxidant efficacy as assessed by the deoxyribose assay at a concentration of 5.2 mM
[3] = Antioxidant efficacy as assessed by the deoxyribose assay in presence of EDTA (0.104 mM) and phenylalanine (0.208 mM)
[4] = Antioxidant efficacy as assessed by the deoxyribose assay at a concentration of 0.104 mM

inhibition [1]: 42%
inhibition [2]: 51%
inhibition [3]: 2%
inhibition [4]: 20%
SMILES: CCOC(=O)C(Cc1ccccc1)NC(=O)CN(CCN(CC(=O)O)CC(=O)NC(Cc1ccccc1)C(=O)OCC)CC(=O)O (centres undefined)
